Article PMC7179958 (CPT: Pharmacometrics & Systems Pharmacology, 2020)

Tested on: human hepatocytes
Experiment: Uptake of pitavastatin and eltrombopag in cryopreserved human hepatocytes (oil spin method), comeasurement, micro‐rate constant mechanistic model
Assay type: in vitro ADME
Experimental: Human hepatocytes were obtained from BioIVT (Brussels, Belgium; lot number: LYB; 10 donor LiverPool (8 Caucasians, 1 African American, and 1 Hispanic) and thawed according to supplier guidelines in Leibovitz L15 medium. Hepatocytes were kept on ice prior to use and were used within 3 hours of defrosting.
Cells were separated using an oil spin method similar to the literature. ^11 , ^17 After separation, the tubes were frozen on dry ice and the bottom layer was cut off.
A dilution factor of 100 was used to scale from pmol/mL/1 × 10^5 cells to nmol/mL/1 × 10^6 cells.
Passive rate constants for movement into and out of the cell (k f.X and k bX, respectively) as well as uptake transporter‐mediated rate constants for association to the transporter (k aX) and dissociation (k dX) and translocation (k tX) from the transporter into the medium and cell, respectively. […] The sets of ODEs for all the models (models 1–4; Table 1 ) tested for structural identifiability and used for parameter estimation are included in the Supplemental Material .
Parameter estimation was conducted within Monolix 2018 R2 (Lixoft, Antony, France) for each concentration and experiment as an individual data set, where to ensure positivity, a log‐normal distribution was assumed for each parameter, with a proportional residual error model for the observations.
Hepatocyte Incubations. […] Eltrombopag was dissolved in DMSO to give 30 µmol/mL, then diluted 333-fold to 90 nmol/mL in Leibovitz L15 medium. […] Briefly, 0.5 mL microtubes (12049877, Thermo-Fisher Scientific, Gothenburg, Sweden) layered with 15 µL of 4 % cesium chloride onto which 140 µL of 8:2 silicone oil: mineral oil, with oil red O was added. Samples were taken by transferring 100 µL of hepatocyte suspension into the microtube and spun for 15 s in a Minispin centrifuge (Eppendorf, Horsholm, Denmark), during which time the hepatocytes passed through the oil into the cesium chloride bottom layer. The tubes were then frozen on dry ice and the bottom layer cut off once frozen into a 1 mL deep well plate (260252, Thermo-Fisher Scientific, Gothenburg, Sweden).
Sample Extraction. 50 µL of water suitable for UPLC (MilliQ ELGA water, Merck-Millipore, Solna, Sweden) and 150 µL of stop solution (50:50 MeOH:MeCN, containing 0.8 % formic acid and 4 pmol/mL 5,5-diethyl-1,3-diphenyl-2-iminobarbituric acid as internal standard) were added to the frozen samples of the cut-off tube bottoms. Samples were mixed on a plate shaker for 1 h and then stored at – 80 °C overnight. Prior to analysis, samples were defrosted and mixed for 30 min before centrifugation of the plates at 4000 g for 20 min at 4 °C. Samples were transferred to a conical bottomed 96 well plate for analysis (249944, Thermo-Fisher Scientific, Gothenburg, Sweden) and diluted 1:1 with MilliQ ELGA water.
Mechanistic Modeling. […] An estimate for the total amount of transporters (To) can be obtained during the mechanistic modeling process (9, 10), and therefore Tf can be replaced using the conservation law during parameter estimation:
Parameter estimation for all model were conducted within the Monolix suite 2018 R2 (Lixoft, Antony, France) where to ensure positivity, a log-normal distribution was assumed for each parameter in the candidate models, together with a proportional residual error model for the observations.

[1] = model 1, conditional mode (minimum‐maximum) for 1 × 10^6 cells
[2] = model 1 micro‐rate constants, conditional mode (minimum‐maximum) for 1 × 10^6 cells

F T.X, fraction transported (CLup.X/(CLup.X+Pdif.X), Eq. 4): 0.12 (0.09–0.2)
DV = amount of measured pitavastatin and/or eltrombopag (ID 29, pitavastatin AMT 10 nmol at TIME 15, TIME 15.5 min (normalised to post eltrombopag incubation)): 1035.93 nmol
DV = amount of measured pitavastatin and/or eltrombopag (ID 29, pitavastatin AMT 10 nmol at TIME 15, TIME 16 min): 1126.83 nmol
DV = amount of measured pitavastatin and/or eltrombopag (ID 29, pitavastatin AMT 10 nmol at TIME 15, TIME 17 min): 1088.94 nmol
DV = amount of measured pitavastatin and/or eltrombopag (ID 29, pitavastatin AMT 10 nmol at TIME 15, TIME 20 min): 1007.88 nmol
DV = amount of measured pitavastatin and/or eltrombopag (ID 29, pitavastatin AMT 10 nmol at TIME 15, TIME 25 min): 1166.93 nmol
DV = amount of measured pitavastatin and/or eltrombopag (ID 29, pitavastatin AMT 10 nmol at TIME 15, TIME 45 min): 1002.58 nmol
DV = amount of measured pitavastatin and/or eltrombopag (ID 30, pitavastatin AMT 10 nmol at TIME 15, TIME 15.25 min): 729.81 nmol
DV = amount of measured pitavastatin and/or eltrombopag (ID 30, pitavastatin AMT 10 nmol at TIME 15, TIME 15.5 min): 682.02 nmol
DV = amount of measured pitavastatin and/or eltrombopag (ID 30, pitavastatin AMT 10 nmol at TIME 15, TIME 16 min): 633.62 nmol
DV = amount of measured pitavastatin and/or eltrombopag (ID 30, pitavastatin AMT 10 nmol at TIME 15, TIME 17 min): 618.74 nmol
DV = amount of measured pitavastatin and/or eltrombopag (ID 30, pitavastatin AMT 10 nmol at TIME 15, TIME 20 min): 608.21 nmol
DV = amount of measured pitavastatin and/or eltrombopag (ID 30, pitavastatin AMT 10 nmol at TIME 15, TIME 25 min): 683.69 nmol
DV = amount of measured pitavastatin and/or eltrombopag (ID 30, pitavastatin AMT 10 nmol at TIME 15, TIME 45 min): 599.94 nmol
DV = amount of measured pitavastatin and/or eltrombopag (ID 31, pitavastatin AMT 30 nmol at TIME 15, TIME 15.25 min): 1382.52 nmol
DV = amount of measured pitavastatin and/or eltrombopag (ID 31, pitavastatin AMT 30 nmol at TIME 15, TIME 15.5 min): 1329.86 nmol
DV = amount of measured pitavastatin and/or eltrombopag (ID 31, pitavastatin AMT 30 nmol at TIME 15, TIME 16 min): 1156.33 nmol
DV = amount of measured pitavastatin and/or eltrombopag (ID 31, pitavastatin AMT 30 nmol at TIME 15, TIME 17 min): 1204.59 nmol
DV = amount of measured pitavastatin and/or eltrombopag (ID 31, pitavastatin AMT 30 nmol at TIME 15, TIME 20 min): 1196.1 nmol
DV = amount of measured pitavastatin and/or eltrombopag (ID 31, pitavastatin AMT 30 nmol at TIME 15, TIME 25 min): 890.75 nmol
DV = amount of measured pitavastatin and/or eltrombopag (ID 31, pitavastatin AMT 30 nmol at TIME 15, TIME 45 min): 983.35 nmol
DV = amount of measured pitavastatin and/or eltrombopag (ID 32, pitavastatin AMT 30 nmol at TIME 15, TIME 15.25 min): 1189.57 nmol
DV = amount of measured pitavastatin and/or eltrombopag (ID 32, pitavastatin AMT 30 nmol at TIME 15, TIME 15.5 min): 1153.93 nmol
DV = amount of measured pitavastatin and/or eltrombopag (ID 32, pitavastatin AMT 30 nmol at TIME 15, TIME 16 min): 1218.64 nmol
DV = amount of measured pitavastatin and/or eltrombopag (ID 32, pitavastatin AMT 30 nmol at TIME 15, TIME 17 min): 1146.32 nmol
DV = amount of measured pitavastatin and/or eltrombopag (ID 32, pitavastatin AMT 30 nmol at TIME 15, TIME 20 min): 1061.43 nmol
DV = amount of measured pitavastatin and/or eltrombopag (ID 32, pitavastatin AMT 30 nmol at TIME 15, TIME 25 min): 1010.46 nmol
DV = amount of measured pitavastatin and/or eltrombopag (ID 32, pitavastatin AMT 30 nmol at TIME 15, TIME 45 min): 1102.17 nmol
DV = amount of measured pitavastatin and/or eltrombopag (ID 33, pitavastatin AMT 30 nmol at TIME 15, TIME 15.25 min): 668.8 nmol
DV = amount of measured pitavastatin and/or eltrombopag (ID 33, pitavastatin AMT 30 nmol at TIME 15, TIME 15.5 min): 715.76 nmol
DV = amount of measured pitavastatin and/or eltrombopag (ID 33, pitavastatin AMT 30 nmol at TIME 15, TIME 16 min): 633.41 nmol
DV = amount of measured pitavastatin and/or eltrombopag (ID 33, pitavastatin AMT 30 nmol at TIME 15, TIME 17 min): 623.34 nmol
DV = amount of measured pitavastatin and/or eltrombopag (ID 33, pitavastatin AMT 30 nmol at TIME 15, TIME 20 min): 652.6 nmol
DV = amount of measured pitavastatin and/or eltrombopag (ID 33, pitavastatin AMT 30 nmol at TIME 15, TIME 25 min): 543.53 nmol
DV = amount of measured pitavastatin and/or eltrombopag (ID 33, pitavastatin AMT 30 nmol at TIME 15, TIME 45 min): 574.79 nmol
DV = amount of measured pitavastatin and/or eltrombopag (ID 34, pitavastatin AMT 100 nmol at TIME 15, TIME 15.25 min): 1383.49 nmol
DV = amount of measured pitavastatin and/or eltrombopag (ID 34, pitavastatin AMT 100 nmol at TIME 15, TIME 15.5 min): 1026.05 nmol
DV = amount of measured pitavastatin and/or eltrombopag (ID 34, pitavastatin AMT 100 nmol at TIME 15, TIME 16 min): 1256.06 nmol
DV = amount of measured pitavastatin and/or eltrombopag (ID 34, pitavastatin AMT 100 nmol at TIME 15, TIME 17 min): 1131.42 nmol
DV = amount of measured pitavastatin and/or eltrombopag (ID 34, pitavastatin AMT 100 nmol at TIME 15, TIME 20 min): 983.13 nmol
DV = amount of measured pitavastatin and/or eltrombopag (ID 34, pitavastatin AMT 100 nmol at TIME 15, TIME 25 min): 1130.84 nmol
DV = amount of measured pitavastatin and/or eltrombopag (ID 34, pitavastatin AMT 100 nmol at TIME 15, TIME 45 min): 1000.32 nmol
DV = amount of measured pitavastatin and/or eltrombopag (ID 36, pitavastatin AMT 100 nmol at TIME 15, TIME 15.25 min): 470.72 nmol
DV = amount of measured pitavastatin and/or eltrombopag (ID 36, pitavastatin AMT 100 nmol at TIME 15, TIME 15.5 min): 453.1 nmol
DV = amount of measured pitavastatin and/or eltrombopag (ID 36, pitavastatin AMT 100 nmol at TIME 15, TIME 16 min): 430.66 nmol
DV = amount of measured pitavastatin and/or eltrombopag (ID 36, pitavastatin AMT 100 nmol at TIME 15, TIME 17 min): 384.81 nmol
DV = amount of measured pitavastatin and/or eltrombopag (ID 36, pitavastatin AMT 100 nmol at TIME 15, TIME 20 min): 459.69 nmol
DV = amount of measured pitavastatin and/or eltrombopag (ID 36, pitavastatin AMT 100 nmol at TIME 15, TIME 25 min): 410.46 nmol
DV = amount of measured pitavastatin and/or eltrombopag (ID 36, pitavastatin AMT 100 nmol at TIME 15, TIME 45 min): 416.81 nmol
transporter‐mediated clearance (V max.up.E.WB/K m.up.E.WB) (eltrombopag, whole body scaled): 1625 mL/min/liver
K m.up.X or K I.up.X (from micro‐rate constants, Eq. 7): 3,138 ng/mL
passive efflux clearance out of the cell (k bX scaled to a clearance): 1.3 (1.05–1.95) µL/min/1 × 10^6 cells
P dif.X (k fX scaled to a clearance): 52 (40–64) µL/min/1 × 10^6 cells
k bX, passive rate constant out of the cell [1]: 0.43 (0.35–0.65) /min
k fX, passive rate constant into the cell [1]: 0.05 (0.04–0.06) /min
V max.up..X, maximum uptake velocity (scaled to whole liver, Eq. 6): 5.1 × 10^6 ng/min/liver
P def.X, passive diffusion out of the cell (scaled to whole liver, Eq. 9): 307 mL/min/liver
V max.up (transporter rate constants transformed, Eq. 6): 49 (28–116) pmol/min/1 × 10^6 cells
SMILES: CC1=NN(c2ccc(C)c(C)c2)C(=O)/C1=N\Nc1cccc(-c2cccc(C(=O)O)c2)c1O [eltrombopag, Eltrombopag]
effect on transporter‐mediated uptake of pitavastatin (30 nmol/mL eltrombopag, 15 minute preincubation, overcome at 10–100 nmol/mL pitavastatin): reduced
k aX, transporter association rate constant [2]: 0.26 (0.23–0.31) /nmol/min
k dX, transporter dissociation rate constant [2]: 1.57 (1.42–2) /min
k tX, transporter translocation rate constant [2]: 0.27 (0.24–0.32) /min
